Results published in US8114843B2, “Photoreactive regulator of protein function and methods of use thereof” (The Regents of the University of California, priority 2005, dated 2012).

Assays:
Kv4.2 = biological target: T1, Kv4.2 (Homo sapiens, UniProt Q9NZV8); assay: PAL photoswitching, whole-cell patch clamp in HEK cells; format: cell-based; conditions: n=6
T1 construct: expressed in transfected cells; host or cells: HEK cells
T1 sequence (Q9NZV8 1-630): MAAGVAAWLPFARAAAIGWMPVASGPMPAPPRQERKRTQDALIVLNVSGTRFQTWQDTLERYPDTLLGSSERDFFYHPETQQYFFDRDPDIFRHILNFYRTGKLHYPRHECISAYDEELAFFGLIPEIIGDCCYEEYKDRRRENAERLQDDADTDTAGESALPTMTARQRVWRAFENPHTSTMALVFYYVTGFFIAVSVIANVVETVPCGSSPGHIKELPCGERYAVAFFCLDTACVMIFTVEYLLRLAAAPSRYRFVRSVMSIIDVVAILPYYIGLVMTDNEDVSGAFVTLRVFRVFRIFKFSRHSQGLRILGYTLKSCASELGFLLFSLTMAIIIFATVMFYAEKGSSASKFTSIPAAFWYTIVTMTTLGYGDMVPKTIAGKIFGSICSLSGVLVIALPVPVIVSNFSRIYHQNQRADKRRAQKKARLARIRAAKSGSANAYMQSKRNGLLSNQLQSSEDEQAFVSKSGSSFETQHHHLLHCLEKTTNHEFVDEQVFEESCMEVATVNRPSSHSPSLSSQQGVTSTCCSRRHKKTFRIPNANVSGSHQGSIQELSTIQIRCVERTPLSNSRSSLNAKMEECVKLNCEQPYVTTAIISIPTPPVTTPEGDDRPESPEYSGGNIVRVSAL
Method: (§1) Cell culture and transfection. HEK293 cells were grown in DMEM containing 5% fetal bovine serum, at 37° C., 7% CO2. For electrophysiology, cells were plated at 12×10^5 cells/cm^2 on poly-L-lysine coated coverslips and transfected using the calcium phosphate method. Recordings were performed 24-36 hours after transfection.
(§2) PAL attachment. HEK293 and hippocampal cells were rinsed in extracellular solution containing in mM: 138 NaCl, 1.5 KCl, 1.2 MgCl2, 2.5 CaCl2, 5 HEPES, 10 glucose and incubated at 37° C. in the dark with 200-250 μM PAL for 15 minutes. For slices, AAQ was diluted to 200 μM in aCSF and treatment was performed in the dark at room temperature for 10 minutes.
(§3) Electrophysiological recording. Recordings from HEK293 and hippocampal neurons were made in the whole-cell patch clamp configuration using a PC-501A amplifier (Warner Instruments). Pulse protocols and measurements were carried out with pCLAMP and a Digidata 1322 interface (Axon Instruments). For voltage-clamp experiment, cells were held at −70 mV. Data was recorded at 20 kHz and filtered at 2 kHz. Recording pipettes with 2.5-4 MΩ resistance were filled with intracellular solution containing in mM: 10 NaCl, 135 K-gluconate, 10 HEPES, 2 MgCl2, 2 MgATP, 1 EGTA, pH 7.4.
(§4) Illumination was provided using a xenon lamp (Sutter Instruments) with narrow band pass filters (380 BP10 for UV and 500 BP5 for visible light respectively). Excitation filters were changed using a lambda 10-2 filter changer (Sutter Instruments) controlled via pCLAMP software.
(§5) Percent photoswitching was defined as the difference between current in UV and visible light divided by current in UV. All data shown in bar graphs are averages±standard error of the mean.

basket cells = assay: Loose-patch extracellular recording in cerebellar slices; format: cell-based, rat; conditions: 500 nm light; with AMPA, NMDA and GABAA receptor antagonists; n=6
Method: Brain Slice Preparation. Parasagittal cerebellar slices were prepared using standard techniques approved by the UCLA Animal Care Committee. The cerebellum was removed from the cranium of a 14-20 day old Sprague-Dawley rat, mounted on an agar support and sectioned parasagitally using a vibrotome (Leica VT-1000) while submerged in cold (<4° C.) artificial cerebrospinal fluid (aCSF) containing in mM: 119 NaCl, 26 NaHCO3, 11 glucose, 2.5 KCl, 2.5 CaCl2, 1.3 MgCl2, and 1 NaH2PO4 and saturated with 95% O2 and 5% CO2 Following sectioning, the […] slices were stored in 35° C. aCSF for 30 minutes and brought to room temperature for subsequent electrophysiological experiments.
as §2
For cerebellar slices, neuronal cell bodies were visualized using an upright microscope with a 40× water immersion lens and equipped with an infrared-DIC enhancement. Loose-patch extracellular recordings were performed using an Axopatch 200B amplifier (Axon Instruments). Electrophysiological recordings were filtered at 1 KHz and digitized at 2-4 KHz. […]

rat retina = assay: AAQ injection into the rat eye (ERG, retinal toxicity); format: in vivo
Method: Rats were dark-adapted overnight, and the entire procedure was done under very dim red light. Rats were anesthetized and placed in a standard electroretinogram (ERG) setup. Recording electrodes were embedded in contact-like cups, which were mounted onto each eye with a conductive adherent fluid. Reference electrodes were placed in the mouth. A light source emitted brief flashes of white light at various intensities. The electrical response of the retina to each light flash was recorded; three trials per intensity were averaged together. Under normal conditions, the ERG will consist of a small downward deflection (A-wave), which reflects the activity of photoreceptors, and a larger upward deflection (B-wave), which reflects the activity of bipolar cells.

[1] = biological target: T2, Shaker channel with engineered cysteine (E422C) (Drosophila melanogaster, UniProt P08510, DEL6-46/E422C); assay: PAL photoswitching, whole-cell patch clamp in HEK293 cells; format: cell-based; conditions: n=6
T2 construct: expressed in transfected cells; host or cells: HEK293
T2 sequence (P08510 other isoform, or with tags, fused parts or gaps DEL6-46/E422C): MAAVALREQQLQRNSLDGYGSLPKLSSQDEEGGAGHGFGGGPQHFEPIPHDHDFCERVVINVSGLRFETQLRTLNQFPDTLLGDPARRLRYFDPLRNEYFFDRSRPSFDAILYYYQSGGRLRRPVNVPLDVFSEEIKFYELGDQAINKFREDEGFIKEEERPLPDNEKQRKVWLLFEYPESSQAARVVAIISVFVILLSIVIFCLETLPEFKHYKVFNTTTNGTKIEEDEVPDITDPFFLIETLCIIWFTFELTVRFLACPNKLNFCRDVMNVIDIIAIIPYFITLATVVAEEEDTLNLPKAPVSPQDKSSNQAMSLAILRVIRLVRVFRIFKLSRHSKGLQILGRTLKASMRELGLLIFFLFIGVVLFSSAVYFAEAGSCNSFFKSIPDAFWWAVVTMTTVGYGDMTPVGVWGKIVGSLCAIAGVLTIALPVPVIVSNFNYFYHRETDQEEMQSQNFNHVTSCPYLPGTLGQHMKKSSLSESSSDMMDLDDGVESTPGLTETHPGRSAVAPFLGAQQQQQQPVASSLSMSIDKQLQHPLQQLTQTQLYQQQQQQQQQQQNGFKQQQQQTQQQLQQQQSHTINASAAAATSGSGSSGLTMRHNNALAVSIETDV
Method: as §1, §2, §3, §4, §5

wild-type Shaker (E422) = biological target: T3, wild-type Shaker (E422) (Drosophila melanogaster, UniProt P08510, DEL6-46); assay: as above; format: cell-based; conditions: n=6
T3 construct: expressed in transfected cells; host or cells: HEK293
T3 sequence (P08510 other isoform, or with tags, fused parts or gaps DEL6-46): as the sequence (P08510 other isoform, or with tags, fused parts or gaps DEL6-46/E422C) above, with C381E counted along it
Method: as §1, §2, §3, §4, §5

C=CC(=O)Nc1ccc(/N=N/c2ccc(NC(=O)C[N+](CC)(CC)CC)cc2)cc1 [AAQ]
current turned on and off by light (Kv4.2): ~80%
enhancement of firing frequency (basket cells): 324±160%
toxic consequences on rat retina (ERG) (rat retina; 7 days post injection): without toxic consequences
effects on retinal neurons after injection into the vitreous humor (rat retina; rat eye): no detectable deleterious effects
fraction of current that could be photoswitched [1]: 39±1%
fraction of current that could be photoswitched (wild-type Shaker (E422)): 48±2%
